Source: article PMC3671111, “A Phase I, open-label, randomized, crossover study in three parallel groups to evaluate the effect of Rifampicin, Ketoconazole, and Omeprazole on the pharmacokinetics of THC/CBD oromucosal spray in healthy volunteers” (SpringerPlus, 2013)
Values joined by “and” are separate entries in the source; they are usually repeats but may differ in a detail not shown here. Equal entries are not always repeated. Marks after values point to notes of the source that are not given here.

Columns and labels:
[1] = Phase I drug-drug interaction PK, Group 2: THC/CBD spray alone or with ketoconazole, plasma by GC-MS; design: k el: dose or concentration left out as unconfirmed; settings: for CL/F / Varea/F: mean (SD)
Description: (§1) Subjects received rifampicin on Days 1-9. […] Subjects received ketoconazole on Days 1-4.
(§2) Blood samples were collected at specified times and stored on ice (except rifampicin PK samples which were stored in iced water) prior to processing and storage. Plasma samples were separated by centrifugation (approximately 2500 rpm × 15 minutes at 4°C). Samples were stored in 4 mL amber glass screw top glass vials with PTFE lined screw caps labelled with Guys Drug Research (Quintiles Limited) labels. The aliquots were stored in clearly labelled containers in a freezer set at or below -20°C, until shipped for assay. Samples were shipped on dry ice at the appropriate time-points.
(§3) The assay validation was undertaken by Advanced Bioanalytical Service Laboratories (London, UK), who developed the technique after reviewing the literature, which was based on the methodology adopted by three different groups (Foltz et al. [1983]; Goodall & Basteyns [1995]; Kemp et al. [1995]), and designed with reference to FDA guidelines for industry (FDA Guidance for Industry [2012]). The method utilised protein precipitation, solvent extraction and derivatisation for the sample preparation and then sample analysis by capillary gas chromatography and detection by a mass spectrometer (GC-MS). The validation procedure investigated the calibration model with the best regression fit over the concentration range 0.1 - 100 ng/mL for CBD, THC and 11-OH-THC, as well as precision and accuracy of the method, stability, carry-over, and specificity.
(§4) Human plasma from healthy volunteers was used to prepare the standards and quality control (QC) samples, with analytes extracted using hexane/ethyl acetate (7:1 ratio), derivatised with N,O-Bis(trimethylsilyl)trifluoroacetamide. Analytic grade THC (Sigma, UK), CBD (Sigma, UK) and 11-OH-THC (Radian International and Cerillant, UK) were obtained, and three sets of CBD, THC and 11-OH-THC were used to support the study. Deuterated THC-d3 (Sigma, UK) was used as the internal standard. The GC-MS equipment was a Hewlett Packard 6890 Gas Chromatograph attached to a Hewlett Packard 5973 Mass Selective Detector. Data handling was carried out using an MS Chemstation System and the peak area ratio of the analytes to the internal standard was calculated in Excel (2000). The concentrations were calculated from the ratio data using least squares ln(y) on ln(x) regression performed in Excel (2000), and were then checked manually. Regression analysis was undertaken to find the regression model that best described the calibration data (for details, see ([Miller & Miller 1992])).
(§5) A 0.5 mL aliquot of test sample, QC or blank plasma was placed into a test tube. The blank plasma was spiked with 50 μL of the appropriate standard solution to produce the calibration standards. 50 μL of the internal standard was added to each test tube. The samples were then diluted by the addition of 500 μL of 0.1% (w/v) ascorbic acid and the protein precipitated by the addition of 1.0 mL of acetonitrile. The proteins were removed by centrifugation and the supernatant concentrated to 1 mL using nitrogen at 50 °C. The samples were then basified by the addition of 300 μL of 5M sodium hydroxide and the analytes extracted by the addition of 2.0 mL of 7:1 hexane:ethyl acetate. After mixing for 16 minutes the tubes were centrifuged and the top layer transferred into clean 3 dram vials. The solvent was removed using nitrogen at 70 °C and the dried extract resuspended in 100 μL of BSTFA and transferred to microvials, capped and placed at 70 °C for 30 minutes to derivatise the analytes. The microvials were then cooled and loaded onto the autosampler tray for analysis where 1 μL was injected onto the GC-MS system.

[2] = in normal dosing; approximately; no reference given; cited from earlier work
[3] = Phase I drug-drug interaction PK, Group 1: THC/CBD spray alone or with rifampicin, plasma by GC-MS; design: k el / half-life: dose or concentration left out as unconfirmed; settings: for CL/F / Varea/F: n = 12, mean (SD)
Description: as §1, §2, §3, §4, §5

[4] = test system: CYP2C19; design: method as in GW unpublished data; settings: one range printed for CYP3A4 and CYP2C19; ref GW unpublished data; read-out: IC50, inhibitory effect on CYP2C19; cited from earlier work
[5] = test system: CYP3A4; design: method as in GW unpublished data; settings: one range printed for CYP3A4 and CYP2C19; ref GW unpublished data; read-out: IC50, inhibitory effect on CYP3A4; cited from earlier work
[6] = Peak plasma concentration of CBD in normal dosing
From the text: However, to investigate the potential interactions of THC and CBD with drugs which also interact with the CYP450s CYP3A4 and CYP2C19, various known inducers/inhibitors of these isoenzymes were employed and the pharmacokinetics (PKs) of their co-administration with THC/CBD spray evaluated.

[7] = Phase I drug-drug interaction PK, Group 3: THC/CBD spray alone or with omeprazole, plasma by GC-MS; settings: for CL/F / Varea/F: n = 12, mean (SD); for Cmax and AUC % Co-efficient of Variation (CV%) range: inter-subject variability
Description: as §1, §2, §3, §4, §5

[8] = Ketoconazole and THC/CBD spray vs THC/CBD spray alone, no-interaction range 0.80 to 1.25
[9] = THC/CBD spray 4 sprays and ketoconazole 400 mg at end of 5-day dosing period, n = 11, plasma
[10] = THC/CBD spray alone, single dose 4 sprays (10.8/10 mg), ketoconazole group, n = 12, plasma
[11] = THC/CBD spray co-administered with ketoconazole vs alone
[12] = Rifampicin and THC/CBD spray vs THC/CBD spray alone, no-interaction range 0.80 to 1.25
[13] = THC/CBD spray 4 sprays and rifampicin 600 mg after repeated daily dosing, plasma
[14] = THC/CBD spray alone, single dose 4 sprays (10.8/10 mg), rifampicin group, plasma
[15] = THC/CBD spray co-administered with rifampicin vs alone
[16] = Omeprazole and THC/CBD spray vs THC/CBD spray alone, no-interaction range 0.80 to 1.25
[17] = THC/CBD spray 4 sprays and omeprazole 40 mg at end of 6-day dosing period, plasma
[18] = THC/CBD spray alone, single dose 4 sprays (10.8/10 mg), omeprazole group, plasma
[19] = THC/CBD spray co-administered with omeprazole vs alone
[20] = male, human, plasma, oral, 40 mg

C=C(C)[C@@H]1CCC(C)=C[C@H]1c1c(O)cc(CCCCC)cc1O [CBD, cannabidiol]
Geometric mean ratio of AUC(0-inf), point estimate [1, 8]: […] | Geometric mean ratio of AUC(0-t), point estimate [1, 8]: […] | Geometric mean ratio of Cmax, point estimate [1, 8]: […] | CL/F [1, 9]: 1731 L/h and 1731 (650)^c L/h | Varea/F [1, 9]: 14349 (7076)^c L | CL/F [1, 10]: 2998 L/h and 2998 (896)^b L/h | Varea/F [1, 10]: 31994 (12794)^b L | % change in mean Tmax [1, 11]: +27% | % change in t1/2 [1, 11]: -16% | Change in mean Cmax ([1]; THC/CBD spray with ketoconazole vs THC/CBD spray alone): +89% | Change in mean CL/F ([1]; co-administered with ketoconazole vs THC/CBD spray alone): -42% | AUC(0-inf) ([1]; male, human, plasma, oral): 6.5 ng·h/mL | AUC(0-t) ([1]; male, human, plasma, oral): 4.83 ng·h/mL | Cmax ([1]; male, human, plasma, oral): 1.25 ng/mL | k el ([1]; male, human, plasma, oral): 3.97e-05 s⁻¹ | Substrate for the isoenzyme CYP3A4 (conclusion from ketoconazole interaction) ([1]; suggested by increased exposure with ketoconazole): substrates | Peak plasma concentrations [2]: […] | Geometric mean ratio of AUC(0-inf), point estimate [3, 12]: […] | Geometric mean ratio of AUC(0-t), point estimate [3, 12]: […] | Geometric mean ratio of Cmax, point estimate [3, 12]: […] | CL/F [3, 13]: 5966 L/h and 5966 (3713)^b L/h | Varea/F [3, 13]: 34790 (20036)^b L | CL/F [3, 14]: 2817 L/h and 2817 (1913) L/h | Varea/F [3, 14]: 28312 (19355) L | % change in mean t1/2 [3, 15]: -62% | % change in median Tmax [3, 15]: +50% | Change in mean Cmax ([3]; THC/CBD spray with rifampicin vs THC/CBD spray alone): -52% | Change in mean CL/F ([3]; after multiple dose rifampicin treatment vs THC/CBD spray alone): +112% | AUC(0-inf) ([3]; male, human, plasma): 2.15 ng·h/mL | AUC(0-t) ([3]; male, human, plasma): 1.31 ng·h/mL | Cmax ([3]; male, human, plasma): 0.5 ng/mL | Tmax ([3]; male, human, plasma): 1.5 h | half-life ([3]; male, human, plasma): 4.13 h | k el ([3]; male, human, plasma): 5.44e-05 s⁻¹ | Tmax ([3]; male, human, plasma, oral): 1 h | half-life ([3]; male, human, plasma, oral): 10.9 h | IC50 [4]: 6 to 9 µM | IC50 [5]: […] | Peak plasma concentration, fold lower than the levels at which CYP inhibition may be anticipated [6]: […] | Geometric mean ratio of AUC(0-inf), point estimate [7, 16]: […] | Geometric mean ratio of AUC(0-t), point estimate [7, 16]: […] | Geometric mean ratio of Cmax, point estimate [7, 16]: […] | CL/F [7, 17]: 4772 (4550) L/h | Varea/F [7, 17]: 24757 (16311) L | CL/F [7, 18]: 4741 (3845)^a L/h | Varea/F [7, 18]: 26298 (14532)^a L | Plasma concentrations and PK parameters compared with THC/CBD spray alone ([7]; THC/CBD spray at end of 6-day omeprazole dosing): […] | % change in Tmax [7, 19]: +9% | % change in t1/2 [7, 19]: +5% | Differences in CL/F on co-administration with omeprazole ([7]; THC/CBD spray with omeprazole vs alone): […] | Substrate for the isoenzyme CYP2C19 (conclusion from omeprazole interaction) ([7]; at the clinically relevant dose of THC/CBD spray investigated): not substrates | Cmax and AUC % Co-efficient of Variation (CV%) range ([7]; THC/CBD spray alone, omeprazole group): […] | Cmax and AUC % Co-efficient of Variation (CV%) range ([7]; THC/CBD spray in combination with omeprazole): […] | Tmax ([7]; male, human, plasma, oral): 1.15 h | half-life ([7]; male, human, plasma, oral): 5.22 h | AUC(0-inf) [7, 20]: 3.33 ng·h/mL | AUC(0-t) [7, 20]: 2.25 ng·h/mL | Cmax [7, 20]: 0.73 ng/mL | Tmax [7, 20]: 1.25 h | half-life [7, 20]: 5.46 h | k el [7, 20]: 5.83e-05 s⁻¹
